Drawing on patent US9320276B2, “N-hetarylmethyl pyrazolylcarboxamides” (BAYER INTELLECTUAL PROPERTY GMBH, priority 2010, dated 2016), this text covers Efficacy and logP for seven compounds.

For one data set, the system named is Sphaerotheca fuliginea. As to the kind of experiment: in vivo preventive test on Sphaerotheca fuliginea (cucumber). Particulars: 500 ppm of active ingredient, evaluated 7 days after inoculation. As to the method: Solvent: 49 parts by weight of N,N-dimethylformamide Emulsifier: 1 part by weight of Alkylarylpolyglycolether To produce a suitable preparation of active compound, 1 part by weight of active compound is mixed with the stated amounts of solvent and emulsifier, and the concentrate is diluted with water to the desired concentration. To test for preventive activity, young plants are sprayed with the preparation of active compound at the stated rate of application. One day after this treatment, the plants are inoculated with an aqueous spore suspension of Sphaerotheca fuliginea. Then the plants are placed in a greenhouse at approximately 23° C. and a relative atmospheric humidity of approximately 70%. The test is evaluated 7 days after the inoculation. 0% means an efficacy which corresponds to that of the untreated control, while an efficacy of 100% means that no disease is observed.

Data set [1] in a line: logP by HPLC on reversed-phase column (EEC Directive 79/831 Annex V.A8). The format is physicochemical. Particulars: 40° C., 0.1% aqueous formic acid and acetonitrile, linear gradient 10% to 90% acetonitrile. Summed up: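 Reversed-phase C18 HPLC at 40° C with 0.1% aqueous formic acid/acetonitrile, linear gradient 10% to 90% acetonitrile. LogP obtained from retention time by linear interpolation between successive unbranched alkan-2-ones (3 to 16 carbons) of known logP. Lambda-max taken from UV spectra at 200-400 nm at chromatographic peak maxima.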

The next data set deals with Pyrenophora teres. As to the kind of experiment: in vivo preventive test on Pyrenophora teres (barley). To be noted: 500 ppm of active ingredient, evaluated 7-9 days after inoculation. Summed up: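 Young barley plants sprayed with compound in DMF/alkylaryl polyglycol ether emulsion; inoculated with P. teres spores one day later. 48 h at 22 °C, 100% humidity, then greenhouse ~20 °C, ~80% humidity; efficacy scored 7-9 days post-inoculation, 0% = untreated, 100% = no disease.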

The test system of data set [2] is Fusarium nivale (var. majus). Put plainly: in vivo curative test on Fusarium nivale (wheat). Particulars: 500 ppm of active ingredient, evaluated 5 days after inoculation. As to the method: Solvent: 49 parts by weight of N,N-dimethylacetamide Emulsifier: 1 part by weight of alkylaryl polyglycol ether To produce a suitable preparation of active compound, 1 part by weight of active compound or active compound combination is mixed with the stated amounts of solvent and emulsifier, and the concentrate is diluted with water to the desired concentration. To test for curative activity, young plants are slightly injured by using a sandblast and afterwards they are sprayed with a conidia suspension of Fusarium nivale (var. majus) and placed for 24 hours in a greenhouse under a translucent incubation cabinet at a temperature of approximately 10° C. and a relative atmospheric humidity of approximately 100% and are subsequently sprayed with the preparation of active compound at the stated rate of application. After the spray coating has been dried, the plants remain in the greenhouse under translucent incubation cloches at a temperature of approximately 10° C. and a relative atmospheric humidity of approximately 100%. The test is evaluated 5 days after the inoculation. 0% means an efficacy which corresponds to that of the untreated control, while an efficacy of 100% means that no disease is observed.

For data set [3], the system named is Blumeria graminis fsp. hordei. Put plainly: in vivo preventive test on Blumeria graminis (barley). Particulars: 500 ppm of active ingredient, evaluated 7 days after inoculation. As to the method:
Solvent: 49 parts by weight of N,N-dimethylacetamide Emulsifier: 1 part by weight of alkylaryl polyglycol ether To produce a suitable preparation of active compound, 1 part by weight of active compound or active compound combination is mixed with the stated amounts of solvent and emulsifier, and the concentrate is diluted with water to the desired concentration. To test for preventive activity, young plants are sprayed with the preparation of active compound or active compound combination at the stated rate of application. After the spray coating has been dried, the plants are dusted with spores of Blumeria graminis fsp. hordei. The plants are placed in the greenhouse at a temperature of approximately 18° C. and a relative atmospheric humidity of approximately 80% to promote the development of mildew pustules. The test is evaluated 7 days after the inoculation. 0% means an efficacy which corresponds to that of the untreated control, while an efficacy of 100% means that no disease is observed.

In another data set the test system is Septoria tritici. As to the kind of experiment: in vivo preventive test on Septoria tritici (wheat). To be noted: 500 ppm of active ingredient, evaluated 21 days after inoculation. As for the experimental part: Solvent: 49 parts by weight of N,N-dimethylacetamide Emulsifier: 1 part by weight of alkylaryl polyglycol ether To produce a suitable preparation of active compound, 1 part by weight of active compound or active compound combination is mixed with the stated amounts of solvent and emulsifier, and the concentrate is diluted with water to the desired concentration. To test for preventive activity, young plants are sprayed with the preparation of active compound or active compound combination at the stated rate of application. After the spray coating has been dried, the plants are sprayed with a spore suspension of Septoria tritici. The plants remain for 48 hours in an incubation cabinet at approximately 20° C. and a relative atmospheric humidity of approximately 100% and afterwards for 60 hours at approximately 15° C. in a translucent incubation cabinet at a relative atmospheric humidity of approximately 100%. The plants are placed in the greenhouse at a temperature of approximately 15° C. and a relative atmospheric humidity of approximately 80%. The test is evaluated 21 days after the inoculation. 0% means an efficacy which corresponds to that of the untreated control, while an efficacy of 100% means that no disease is observed.

The test system of another data set is Leptosphaeria nodorum. Put plainly: in vivo preventive test on Leptosphaeria nodorum (wheat). Particulars: 500 ppm of active ingredient, evaluated 7-9 days after inoculation. As to the method:
Solvent: 49 parts by weight of N,N-dimethylacetamide Emulsifier: 1 part by weight of alkylaryl polyglycol ether To produce a suitable preparation of active compound, 1 part by weight of active compound is mixed with the stated amounts of solvent and emulsifier, and the concentrate is diluted with water to the desired concentration. To test for preventive activity, young plants are sprayed with a preparation of active compound at the stated rate of application. One day after this treatment, the plants are inoculated with an aqueous spore suspension of Leptosphaeria nodorum. The plants remain for 48 hours in an incubation cabinet at 22° C. and a relative atmospheric humidity of 100%. Then the plants are placed in a greenhouse at a temperature of approximately 22° C. and a relative atmospheric humidity of approximately 90%. The test is evaluated 7-9 days after the inoculation. 0% means an efficacy which corresponds to that of the untreated control, while an efficacy of 100% means that no disease is observed.

The mark [4] stands for this setting: HPLC on reversed-phase column (C 18).

Broadly, the logP is a log measure of how a compound divides between an organic and an aqueous phase. Low values mean a more hydrophilic compound, high ones a more lipophilic compound. Consider `CC(c1cc2ccccc2o1)N(C(=O)c1c(C(F)F)nn(C)c1F)C1CC1` (racemic) [Example 70], for which the Efficacy in the data set with Sphaerotheca fuliginea is 98%; with Pyrenophora teres, 100%; in data set [2], 100%; in data set [3], 80%; in the data set on Septoria tritici, 100%; in the data set on Leptosphaeria nodorum, 83%. Moreover, the logP in data set [1] (setting [4]) came out at 3.42.

For `CC(c1cc2ccccc2s1)N(C(=O)c1c(C(F)F)nn(C)c1F)C1CC1` (racemic) [Example 80], the Efficacy is reported as 99% in the data set on Sphaerotheca fuliginea; 100% in the data set on Pyrenophora teres; 93% in data set [2]; 86% in data set [3]; 100% with Septoria tritici; 100% in the data set on Leptosphaeria nodorum. Besides, the logP in data set [1] (setting [4]) stood at 3.69.

For the compound `CC(c1cccc2ccsc12)N(C(=O)c1c(C(F)F)nn(C)c1F)C1CC1` (stereo not drawn) [Example 91], the Efficacy with Sphaerotheca fuliginea is 88%; in the data set on Pyrenophora teres it was 100%; in data set [2], 71%; in data set [3], 94%; with Septoria tritici, 100%; in the data set on Leptosphaeria nodorum it was 100%. The logP in data set [1] (setting [4]) amounted to 3.44.

Consider `Cn1nc(C(F)F)c(C(=S)N(Cc2cccc3ccsc23)C2CC2)c1F` [Example 95], for which the Efficacy in the data set on Sphaerotheca fuliginea is 88%; in the data set on Pyrenophora teres it was 100%; in data set [2] it was 86%; in data set [3] it was 100%; in the data set on Septoria tritici it was 80%. In data set [1] (setting [4]), the logP amounted to 3.83.

As to `CC(c1cc(Cl)sc1Cl)N(C(=O)c1c(C(F)F)nn(C)c1F)C1CC1` (stereo not drawn) [Example 128], the Efficacy with Sphaerotheca fuliginea was found to be 98%; in the data set on Pyrenophora teres it was 100%; in data set [2], 100%; in data set [3], 100%; with Septoria tritici, 90%; in the data set on Leptosphaeria nodorum, 100%. In data set [1] (setting [4]), the logP came out at 4.03.

Consider `Cc1sc(-c2ccccc2)cc1C(C)N(C(=O)c1c(C(F)F)nn(C)c1F)C1CC1` (stereo not drawn) [Example 147], for which the Efficacy with Sphaerotheca fuliginea was found to be 88%; in the data set with Pyrenophora teres, 100%; in data set [2], 92%; in data set [3] it was 70%; with Septoria tritici, 80%; in the data set with Leptosphaeria nodorum, 93%. For the same compound, the lipophilicity (logP) in data set [1] (setting [4]) was 4.41.

In the case of `CC(C)c1nn(-c2ccccc2)c(Cl)c1CN(C(=O)c1c(C(F)F)nn(C)c1F)C1CC1` [Example 169], the Efficacy is reported as 100% in the data set with Sphaerotheca fuliginea; 100% in the data set with Pyrenophora teres; 83% in data set [2]; 100% in data set [3]; 100% in the data set on Septoria tritici; 100% with Leptosphaeria nodorum. The same compound displayed a logP in data set [1] (HPLC, reversed-phase column (C 18)) of 3.94.
